# Data from US20080063668A1, “Nitroimidazole and terconazole composition and method” (priority 2006, published 2008).
# What was measured:
# [1] = test system: Bacteroides fragilis ATCC 25285; test: Inhibition of bacteria growth, drug dilution tubes, anaerobic; assay type: cell-based; parameters: key: (+) for growth; (−) for no growth; (±) for suboptimal growth after an initial observation of growth
# Protocol: (§1) Serial dilutions of tinidazole and terconazole were prepared by adding measured amounts of each substance to water (both individually and in combination). Seven bacterial organisms that are common pathogens in bacterial vaginosis were grown anaerobically in the medium as listed in Table 4 under a N2/H2/CO2 (85:5:10) head space atmosphere. [table] These cultures were diluted to a 0.5 McFarland standard prior to inoculation of drug dilution tubes. One (1) mL of the 0.5 McFarland preparation was inoculated to an anaerobically prepared test tube containing 0.8 mL of Difco anaerobic medium (DAMM) and 0.2 mL of appropriate diluted antimicrobial or antimicrobial combination for a total of 2 mL. The inoculated tubes were then incubated at 37° C. and monitored daily for growth. Growth was scored with a (+) for growth, (−) for no growth, and (±) for suboptimal growth after an initial observation of growth. Tinidazole is abbreviated as TNZ and terconazole is abbreviated as TER in Tables 5 through 11.
# [2] = test system: Mobiluncus curtisii var. curtisii ATCC 35241; test: as above; assay type: cell-based; parameters: key: (+) for growth; (−) for no growth; (±) for suboptimal growth after an initial observation of growth
# Protocol: as §1
# [3] = test system: Mobiluncus curtisii var. holmesii ATCC 35242; test: as above; assay type: cell-based; parameters: key: (+) for growth; (−) for no growth; (±) for suboptimal growth after an initial observation of growth
# Protocol: as §1
# [4] = neutral pH; cited from earlier work
smiles,measurement,setting,value
"CCS(=O)(=O)CCn1c([N+](=O)[O-])cnc1C [TNZ, 1-[2-(ethylsulfonyl)ethyl]-2-methyl-5-nitroimidazole]",growth,"[1]; TNZ 2 μg/ml, DAY 1",(−)
same,growth,"[1]; TNZ 2 μg/ml, DAY 2",(−)
same,growth,"[1]; TNZ 2 μg/ml, DAY 3",(−)
same,growth,"[1]; TNZ 2 μg/ml, DAY 4",(−)
same,growth,"[1]; TNZ 2 μg/ml, DAY 5",(+)
same,growth,"[1]; TNZ 3.9 μg/ml, DAY 1",(−)
same,growth,"[1]; TNZ 3.9 μg/ml, DAY 2",(−)
same,growth,"[1]; TNZ 3.9 μg/ml, DAY 3",(−)
same,growth,"[1]; TNZ 3.9 μg/ml, DAY 4",(−)
same,growth,"[1]; TNZ 3.9 μg/ml, DAY 5",(−)
same,growth,"[1]; TNZ 7.8 μg/ml, DAY 1",(−)
same,growth,"[1]; TNZ 7.8 μg/ml, DAY 2",(−)
same,growth,"[1]; TNZ 7.8 μg/ml, DAY 3",(−)
same,growth,"[1]; TNZ 7.8 μg/ml, DAY 4",(−)
same,growth,"[1]; TNZ 7.8 μg/ml, DAY 5",(−)
same,growth,"[1]; TNZ 15.6 μg/ml, DAY 1",(−)
same,growth,"[1]; TNZ 15.6 μg/ml, DAY 2",(−)
same,growth,"[1]; TNZ 15.6 μg/ml, DAY 3",(−)
same,growth,"[1]; TNZ 15.6 μg/ml, DAY 4",(−)
same,growth,"[1]; TNZ 15.6 μg/ml, DAY 5",(−)
same,growth,"[1]; TNZ 31.3 μg/ml, DAY 1",(−)
same,growth,"[1]; TNZ 31.3 μg/ml, DAY 2",(−)
same,growth,"[1]; TNZ 31.3 μg/ml, DAY 3",(−)
same,growth,"[1]; TNZ 31.3 μg/ml, DAY 4",(−)
same,growth,"[1]; TNZ 31.3 μg/ml, DAY 5",(−)
same,growth,"[1]; TNZ 62.5 μg/ml, DAY 1",(−)
same,growth,"[1]; TNZ 62.5 μg/ml, DAY 2",(−)
same,growth,"[1]; TNZ 62.5 μg/ml, DAY 3",(−)
same,growth,"[1]; TNZ 62.5 μg/ml, DAY 4",(−)
same,growth,"[1]; TNZ 62.5 μg/ml, DAY 5",(−)
same,growth,"[1]; TNZ 125 μg/ml, DAY 1",(−)
same,growth,"[1]; TNZ 125 μg/ml, DAY 2",(−)
same,growth,"[1]; TNZ 125 μg/ml, DAY 3",(−)
same,growth,"[1]; TNZ 125 μg/ml, DAY 4",(−)
same,growth,"[1]; TNZ 125 μg/ml, DAY 5",(−)
same,growth,"[1]; TNZ 250 μg/ml, DAY 1",(−)
same,growth,"[1]; TNZ 250 μg/ml, DAY 2",(−)
same,growth,"[1]; TNZ 250 μg/ml, DAY 3",(−)
same,growth,"[1]; TNZ 250 μg/ml, DAY 4",(−)
same,growth,"[1]; TNZ 250 μg/ml, DAY 5",(−)
same,growth,"[1]; TNZ 500 μg/ml, DAY 1",(−)
same,growth,"[1]; TNZ 500 μg/ml, DAY 2",(−)
same,growth,"[1]; TNZ 500 μg/ml, DAY 3",(−)
same,growth,"[1]; TNZ 500 μg/ml, DAY 4",(−)
same,growth,"[1]; TNZ 500 μg/ml, DAY 5",(−)
same,growth,"[2]; TNZ 2 μg/ml, DAY 1",(+)
same,growth,"[2]; TNZ 2 μg/ml, DAY 2",(+)
same,growth,"[2]; TNZ 2 μg/ml, DAY 3",(+)
same,growth,"[2]; TNZ 2 μg/ml, DAY 4",(+)
same,growth,"[2]; TNZ 2 μg/ml, DAY 5",(+)
same,growth,"[2]; TNZ 3.9 μg/ml, DAY 1",(+)
same,growth,"[2]; TNZ 3.9 μg/ml, DAY 2",(+)
same,growth,"[2]; TNZ 3.9 μg/ml, DAY 3",(+)
same,growth,"[2]; TNZ 3.9 μg/ml, DAY 4",(+)
same,growth,"[2]; TNZ 3.9 μg/ml, DAY 5",(+)
same,growth,"[2]; TNZ 7.8 μg/ml, DAY 1",(+)
same,growth,"[2]; TNZ 7.8 μg/ml, DAY 2",(+)
same,growth,"[2]; TNZ 7.8 μg/ml, DAY 3",(+)
same,growth,"[2]; TNZ 7.8 μg/ml, DAY 4",(+)
same,growth,"[2]; TNZ 7.8 μg/ml, DAY 5",(+)
same,growth,"[2]; TNZ 15.6 μg/ml, DAY 1",(+)
same,growth,"[2]; TNZ 15.6 μg/ml, DAY 2",(+)
same,growth,"[2]; TNZ 15.6 μg/ml, DAY 3",(+)
same,growth,"[2]; TNZ 15.6 μg/ml, DAY 4",(+)
same,growth,"[2]; TNZ 15.6 μg/ml, DAY 5",(+)
same,growth,"[2]; TNZ 31.3 μg/ml, DAY 1",(+)
same,growth,"[2]; TNZ 31.3 μg/ml, DAY 2",(+)
same,growth,"[2]; TNZ 31.3 μg/ml, DAY 3",(+)
same,growth,"[2]; TNZ 31.3 μg/ml, DAY 4",(+)
same,growth,"[2]; TNZ 31.3 μg/ml, DAY 5",(+)
same,growth,"[2]; TNZ 62.5 μg/ml, DAY 1",(+)
same,growth,"[2]; TNZ 62.5 μg/ml, DAY 2",(+)
same,growth,"[2]; TNZ 62.5 μg/ml, DAY 3",(+)
same,growth,"[2]; TNZ 62.5 μg/ml, DAY 4",(+)
same,growth,"[2]; TNZ 62.5 μg/ml, DAY 5",(+)
same,growth,"[2]; TNZ 125 μg/ml, DAY 1",(+)
same,growth,"[2]; TNZ 125 μg/ml, DAY 2",(+)
same,growth,"[2]; TNZ 125 μg/ml, DAY 3",(+)
same,growth,"[2]; TNZ 125 μg/ml, DAY 4",(+)
same,growth,"[2]; TNZ 125 μg/ml, DAY 5",(+)
same,growth,"[2]; TNZ 250 μg/ml, DAY 1",(−)
same,growth,"[2]; TNZ 250 μg/ml, DAY 2",(+)
same,growth,"[2]; TNZ 250 μg/ml, DAY 3",(+)
same,growth,"[2]; TNZ 250 μg/ml, DAY 4",(+)
same,growth,"[2]; TNZ 250 μg/ml, DAY 5",(+)
same,growth,"[2]; TNZ 500 μg/ml, DAY 1",(−)
same,growth,"[2]; TNZ 500 μg/ml, DAY 2",(−)
same,growth,"[2]; TNZ 500 μg/ml, DAY 3",(−)
same,growth,"[2]; TNZ 500 μg/ml, DAY 4",(−)
same,growth,"[2]; TNZ 500 μg/ml, DAY 5",(+)
same,growth,"[3]; TNZ 2 μg/ml, DAY 1",(+)
same,growth,"[3]; TNZ 2 μg/ml, DAY 2",(+)
same,growth,"[3]; TNZ 2 μg/ml, DAY 3",(+)
same,growth,"[3]; TNZ 2 μg/ml, DAY 4",(+)
same,growth,"[3]; TNZ 2 μg/ml, DAY 5",(+)
same,growth,"[3]; TNZ 3.9 μg/ml, DAY 1",(+)
same,growth,"[3]; TNZ 3.9 μg/ml, DAY 2",(+)
same,growth,"[3]; TNZ 3.9 μg/ml, DAY 3",(+)
same,growth,"[3]; TNZ 3.9 μg/ml, DAY 4",(+)
same,growth,"[3]; TNZ 3.9 μg/ml, DAY 5",(+)
same,growth,"[3]; TNZ 7.8 μg/ml, DAY 1",(+)
same,growth,"[3]; TNZ 7.8 μg/ml, DAY 2",(+)
same,growth,"[3]; TNZ 7.8 μg/ml, DAY 3",(+)
same,growth,"[3]; TNZ 7.8 μg/ml, DAY 4",(+)
same,growth,"[3]; TNZ 7.8 μg/ml, DAY 5",(+)
same,growth,"[3]; TNZ 15.6 μg/ml, DAY 1",(+)
same,growth,"[3]; TNZ 15.6 μg/ml, DAY 2",(+)
same,growth,"[3]; TNZ 15.6 μg/ml, DAY 3",(+)
same,growth,"[3]; TNZ 15.6 μg/ml, DAY 4",(+)
same,growth,"[3]; TNZ 15.6 μg/ml, DAY 5",(+)
same,growth,"[3]; TNZ 31.3 μg/ml, DAY 1",(+)
same,growth,"[3]; TNZ 31.3 μg/ml, DAY 2",(+)
same,growth,"[3]; TNZ 31.3 μg/ml, DAY 3",(+)
same,growth,"[3]; TNZ 31.3 μg/ml, DAY 4",(+)
same,growth,"[3]; TNZ 31.3 μg/ml, DAY 5",(+)
same,growth,"[3]; TNZ 62.5 μg/ml, DAY 1",(+)
same,growth,"[3]; TNZ 62.5 μg/ml, DAY 2",(+)
same,growth,"[3]; TNZ 62.5 μg/ml, DAY 3",(+)
same,growth,"[3]; TNZ 62.5 μg/ml, DAY 4",(+)
same,growth,"[3]; TNZ 62.5 μg/ml, DAY 5",(+)
same,growth,"[3]; TNZ 125 μg/ml, DAY 1",(+)
same,growth,"[3]; TNZ 125 μg/ml, DAY 2",(+)
same,growth,"[3]; TNZ 125 μg/ml, DAY 3",(+)
same,growth,"[3]; TNZ 125 μg/ml, DAY 4",(+)
same,growth,"[3]; TNZ 125 μg/ml, DAY 5",(+)
same,growth,"[3]; TNZ 250 μg/ml, DAY 1",(+)
same,growth,"[3]; TNZ 250 μg/ml, DAY 2",(+)
same,growth,"[3]; TNZ 250 μg/ml, DAY 3",(+)
same,growth,"[3]; TNZ 250 μg/ml, DAY 4",(+)
same,growth,"[3]; TNZ 250 μg/ml, DAY 5",(+)
same,growth,"[3]; TNZ 500 μg/ml, DAY 1",(+)
same,growth,"[3]; TNZ 500 μg/ml, DAY 2",(+)
same,growth,"[3]; TNZ 500 μg/ml, DAY 3",(+)
same,growth,"[3]; TNZ 500 μg/ml, DAY 4",(+)
same,growth,"[3]; TNZ 500 μg/ml, DAY 5",(+)
same,solubility in water,[4],about 0.45 percent by weight
